Experimental data published in US20260199493A1 (priority 2021, published 2026).

Key:
HSA mRNA = conditions: HSA-LR mice
From the text: […] The HSA-LR mice were divided into 5 groups. […] […] RT-PCR was used to determine alternative splicing for specific genes (Atp2a1, Clcn1, Nfix, MBNL1). LC-mass was used to determine drug level in Quad, gastro, TA, Triceps, diaphragm, heart, kidney, liver, Brain, plasma. RNA-seq was used to determine the transcription level change between a treated disease model, an untreated disease model and wild-type. Fluorescence imaging was used to determine RNA Foci reduction after treatment with the EEV-oligo compound. […] Q-PCR was used to determine the reduction of mRNA level of actin-HSA after treatment.
(§1) RT-PCR was used to determine alternative splicing for specific genes (Atp2a1, Clcn1, Nfix, MBNL1). LC-mass was used to determine drug level in Quad, gastro, TA, Triceps, diaphragm, heart, kidney, liver, Brain, plasma. RNA-seq was used to determine the transcription level change between a treated disease model, an untreated disease model and wild-type. Fluorescence imaging was used to determine RNA Foci reduction after treatment with the EEV-oligo compound. Myotonia reduction was recorded 7 days after treatment with the EEV-oligo compound. Q-PCR was used to determine the reduction of mRNA level of actin-HSA after treatment.

[1] = From the text: (§2) 9 week old HSA-LR mice and control FVB mice were employed in a 1 week post single dose range study. The HSA-LR mice were divided into 5 groups. […] Tissues were harvested after 7 days. RT-PCR was used to determine alternative splicing for specific genes (Atp2a1, Clcn1, Nfix, MBNL1). LC-mass was used to determine drug level in Quad, gastro, TA, Triceps, diaphragm, heart, kidney, liver, Brain, plasma. RNA-seq was used to determine the transcription level change between a treated disease model, an untreated disease model and wild-type. Fluorescence imaging was used to determine RNA Foci reduction after treatment with the EEV-oligo compound. […] Q-PCR was used to determine the reduction of mRNA level of actin-HSA after treatment.
CUG foci = conditions: HSA-LR mouse, 1 week
From the text: as §2

[2] = system: MBNL1 downstream genes (Atp2a1, Nfix, Clcn1, Mbnl1); conditions: 1 week
From the text: as §2, §1

nuclear foci (CUG foci) = conditions: DM1 patient-derived muscle cells, 30 μM, 4 days of differentiation
Procedure: (§3) Patient myoblasts were treated with 30 micromolar of EEV-oligo throughout 4 days of differentiation. Splicing correction was assessed by one-step RT-PCR. HCR—FISH and sequestered MBNL1 protein detection assays were used to detect RNA foci.
(§4) Patient myoblasts harbor 2600 CTG repeats within the DMPK 3′UTR. […] Splicing correction was assessed by one-step RT-PCR and Labchip analysis. Plotted mean f SD; n=4 HCR—FISH assay for CUG foci detection in place.

[3] = system: DM1 patient-derived muscle cells; conditions: 30 μM, 4 days of differentiation
Procedure: as §3, §4

IRF5 protein = conditions: for efficacy relative to EEV-PMO-IRF5-1 / IRF-5 protein expression compared to cells stimulated with R848 / IRF-5 protein reduction: RAW 264.7 cells; for efficacy relative to EEV-PMO-IRF5-1 / relative potency compared to EEV-PMO-IRF5-1 (IRF5 protein expression): R848 stimulation; for efficacy relative to EEV-PMO-IRF5-1: on average; for IRF-5 protein expression compared to cells stimulated with R848: all tested concentrations; for IRF-5 protein reduction: concentrations as low as 2 μM, vs cells stimulated with R848; for relative potency compared to EEV-PMO-IRF5-1 (IRF5 protein expression): mouse macrophage cells, Western Blot
IRF-5 gene exon skipping = conditions: RAW 264.7 cells, 5 μM
Procedure: Briefly, 150K cells/well were seeded in a 24 well plate in 0.5 ml DMEM. […] Following the second incubation, the RNA was harvested and RT-PCR was done using primers that detect exon 5 skipping in the IRF-5 gene.

[4] = system: exon 44 of human dystrophin mRNA; assay: Exon 44 skipping by RT-PCR in hDMD mice; assay type: in vivo
Procedure: The hemizygous mice were further genotyped at Transnetyx. All groups were dosed 5 mL/kg per animal by intravenous (iv) injection and sacrificed after 5 days post injection. All animals were euthanized by CO2 asphyxiation followed by terminal blood collection via cardiac puncture. Maximum obtainable volume of whole blood was collected into lithium heparin tubes and processed to plasma. A portion of plasma was analyzed for clinical chemistries by the Testing Facility (IDEXX) and the rest stored frozen at nominally −70° C. […] Animals were age matched and assigned into eight (8) treatment groups according to Table 15. […] All animals survived until their scheduled euthanasia time. Tissues were collected per protocol. The amount of AC and a cCPP-AC in various tissue samples was quantified by LC-MS. Exon skipping in different tissues were analyzed by RT-PCR and the quantification of exon 44 correction.
(§5) Exon Skipping Analysis by RT-PCR: hDMD mice and NHP express full-length human dystrophin mRNA. The delivery of AC can alter the splicing and result in a shortened dystrophin mRNA after exon 44 skipping. The tissues were homogenized using 1 mL of RLT lysis buffer (Qiagen, Cat #79216). The detection of splicing correction process was measured by RT-PCR where extracted RNAs from tissues were first reverse-transcribed into cDNA and further analyzed by one step RT-PCR using the following primer set: forward primer 5′-[…]-3′ (SEQ ID NO: 262) and reverse primer 5′-[…]-3′ (SEQ ID NO: 263). […] Quantification of the relative intensity of the bands corresponding to skipped and unskipped transcripts were performed to assess AC-induced exon-44-skipping efficacy. The degree (percentage) of splicing correction detected by RT-PCR was calculated using the following equation: % correction=(intensity of 493 bp fragment band)/(intensity of 493 bp fragment band+intensity of 641 bp fragment band).

[5] = system: human dystrophin (DMD) exon 44; assay: Exon 44 skipping in DMD patient-derived muscle cells; assay type: cell-based; conditions: dose-dependent, maximum observed
Procedure: After 24 hours, the compound-containing growth medium was replaced with DMEM/2% horse serum and incubated for 5 days to promote myoblast fusion and differentiation into myotubes. Cells were washed and harvested for RNA extraction to assess exon 44 skipping, or in RIPA buffer containing protease inhibitors for protein extraction and Simple Western analysis of dystrophin protein restoration. Dystrophin levels were normalized to HSP90 and expressed relative to untreated healthy samples. Data are expressed as mean±SD, n=3-4. Untreated DMDΔ45 patient derived cells express ~10% spontaneous DMD exon 44 skipping and ~4% dystrophin protein at baseline.

[6] = system: exon 44 of dystrophin mRNA; assay: Exon 44 skipping by RT-PCR in NHP; assay type: in vivo, cynomolgus monkeys
Procedure: Each testing article was formulated in saline at 4 mg/mL. Bloods and urine were taken at times indicated in Table 18 for further PK analysis. Biopsy at 2 days post injection was performed on biceps. Animals were sacrificed at day 7 post injection and skeletal muscles (quadriceps, diaphragm, biceps, deltoid, tibialis anterior (TiA), smooth muscles (esophagus, aorta, colon) and cardiac muscles (ventricle, atrium) were taken, pulverized, and stored at −80° C. for evaluation of exon skipping and biodistribution in tissues.
as §5
Approximately 20 hours post dose the animal was (bright, alert, and responsive such that the animal was phenotypically “normal”) (BAR) and had zero biscuits left in the cage and was observed eating produce.

GYS1 = conditions: GAA knockout mice, single IV dose, one-week post-injection
[7] = in vivo
From the text: as §2, §1

[8] = system: Human Primary Renal Proximal Tubular Epithelial Cells (RPTECs); conditions: 24 hours
[9] = HSA-LR mice, 15, 30, 60, 90 mpk IV

Ac-PKKKRKV-AEEA-K(cyclo[FGFGRGRQ])-PEG12-OH [EEV-PMO-DM1-3]
HSA mRNA knockdown (HSA mRNA; 80 mpk IV, 1-week and 4-week post-injection): HSA mRNA knockdown trend
HSA mRNA knockdown in skeletal muscles (HSA mRNA; quadriceps, gastrocnemius, triceps, tibialis anterior, 1 week): 50-70%
myotonia ([1]; HSA-LR mice, 15, 30, 60 and 90 mpk, 7 days): dose dependent myotonia reduction
hindlimb myotonia ([1]; HSA-LR mice, single dose 90 mg/kg, 1 week): did not exhibit obvious signs of hindlimb myotonia after induction
CUG foci in TA muscle (CUG foci): reduces CUG foci
correction of MBNL1 downstream genes, gastrocnemius [2, 9]: dose dependent correction
correction of MBNL1 downstream genes, quadriceps [2, 9]: dose dependent correction
correction of MBNL1 downstream genes, tibialis anterior [2, 9]: dose dependent correction
correction of MBNL1 downstream genes, triceps [2, 9]: dose dependent correction
mis-splicing in gastrocnemius, triceps, tibialis anterior and quadricep ([2]; HSA-LR mice, 60 mpk oligo, 80 mpk whole drug): fully correct mis-splicing
nuclear foci (nuclear foci (CUG foci)): reduction in nuclear foci
biomarker splicing correction [3]: significant biomarker splicing correction

Ac-PKKKRKV-AEEA-K(cyclo[FGFGRRRQ])-PEG12-OH [EEV-PMO-IRF5-3]
efficacy relative to EEV-PMO-IRF5-1 (IRF5 protein): 5 fold
IRF-5 protein expression compared to cells stimulated with R848 (IRF5 protein): significant reduction in IRF-5 protein expression
IRF-5 protein reduction (IRF5 protein): about 80%
relative potency compared to EEV-PMO-IRF5-1 (IRF5 protein expression) (IRF5 protein): significant improvement in relative potency
exon skipping compared to EEV-PMO-IRF5-1 (IRF-5 gene exon skipping): higher exon skipping

Ac-PKKKRKV-AEEA-K(cyclo[FGFRRRRQ])-PEG12-OH [EEV-PMO-IRF5-4]
efficacy relative to EEV-PMO-IRF5-1 (IRF5 protein): 5 fold
IRF-5 protein expression compared to cells stimulated with R848 (IRF5 protein): significant reduction in IRF-5 protein expression
IRF-5 protein reduction (IRF5 protein): about 80%
relative potency compared to EEV-PMO-IRF5-1 (IRF5 protein expression) (IRF5 protein): significant improvement in relative potency
exon skipping compared to EEV-PMO-IRF5-1 (IRF-5 gene exon skipping): higher exon skipping

Ac-PKKKRKV-AEEA-K(cyclo[FfΦGrGrQ])-PEG12-OH [EEV-PMO-IRF5-2]
efficacy relative to EEV-PMO-IRF5-1 (IRF5 protein): 5 fold
IRF-5 protein expression compared to cells stimulated with R848 (IRF5 protein): significant reduction in IRF-5 protein expression
IRF-5 protein reduction (IRF5 protein): about 80%
relative potency compared to EEV-PMO-IRF5-1 (IRF5 protein expression) (IRF5 protein): significant improvement in relative potency
exon skipping compared to EEV-PMO-IRF5-1 (IRF-5 gene exon skipping): higher exon skipping

Ac-PKKKRKV-AEEA-Lys-(cyclo[FGFGRGRQ])-PEG12-OH [EEV-PMO-DMD44-1]
exon skipping ([4]; hDMD mice, 10 mpk IV, 5 days, Diaphragm): 6%
exon skipping ([4]; hDMD mice, 10 mpk IV, 5 days, TiA): 12%
exon skipping ([4]; hDMD mice, 10 mpk IV, 5 days, Triceps): 6%
exon skipping ([4]; hDMD mice, 10 mpk IV, 5 days, heart): 0%
exon skipping ([4]; hDMD mice, 20 mpk IV, 5 days, Diaphragm): 33%
exon skipping ([4]; hDMD mice, 20 mpk IV, 5 days, TiA): 36%
exon skipping ([4]; hDMD mice, 20 mpk IV, 5 days, Triceps): 22
exon skipping ([4]; hDMD mice, 20 mpk IV, 5 days, heart): 0%
exon skipping ([4]; hDMD mice, 40 mpk IV, 5 days, Diaphragm): 82%
exon skipping ([4]; hDMD mice, 40 mpk IV, 5 days, TiA): 99%
exon skipping ([4]; hDMD mice, 40 mpk IV, 5 days, Triceps): 94%
exon skipping ([4]; hDMD mice, 40 mpk IV, 5 days, heart): 20%
exon skipping ([4]; hDMD mice, 80 mpk IV, 5 days, Diaphragm): 98%
exon skipping ([4]; hDMD mice, 80 mpk IV, 5 days, TiA): 99%
exon skipping ([4]; hDMD mice, 80 mpk IV, 5 days, Triceps): 97%
exon skipping ([4]; hDMD mice, 80 mpk IV, 5 days, heart): 79%
minimum efficacious dose in the heart ([4]; hDMD mice, IV, 5 days): 40 mpk
exon skipping ([4]; mouse, in vivo): up to 100%
exon 44 skipping [5]: up to 100%
exon 44 skipping across different muscle groups ([6]; 30 mg/kg, 1 hour IV infusion, 7 days): robust exon 44 skipping
exon skipping in all skeletal muscles ([6]; 40 mpk IV, 7-d post injection): more than 78%
exon skipping, atrium ([6]; 40 mpk IV, 7-d post injection): 23.4%
exon skipping, diaphragm ([6]; 40 mpk IV, 7-d post injection): 98.4%
exon skipping, esophagus ([6]; 40 mpk IV, 7-d post injection): 57.1%
exon skipping, ventricle ([6]; 40 mpk IV, 7-d post injection): 31.9%

Ac-PKKKRKV-PEG2-K(cyclo[Ff-Φ-Cit-r-Cit-rQ1)-PEG12-K(N3)-NH2 [EEV-PMO-GYS1-1]
GYS1 expression in the diaphragm and cardiac muscle (GYS1): significant knockdown

Ac-PKKKRKV-PEG2-K(cyclo[Ff-Φ-GrGrQ])-PEG2-K(N3)-NH2 [EEV-PMO-GYS1-2]
GYS1 expression in the diaphragm and cardiac muscle (GYS1): significant knockdown

CAGCAGCAGCAGCAGCAGCAG [PMO-DM1]
metabolite of EEV-PMO-DM1-3 [7]: major metabolite detected in vivo
toxicity (viability): no toxicity at highest concentration tested [8]: > 817 µM
